“And” between values parts separate entries of the source, which are not always exact repeats. Identical values can stand only once.

In assay [1] the target is T1, Inhibitor of nuclear factor kappa-B kinase subunit alpha (Homo sapiens) (UniProt O15111).
T1 sequence (whole entry): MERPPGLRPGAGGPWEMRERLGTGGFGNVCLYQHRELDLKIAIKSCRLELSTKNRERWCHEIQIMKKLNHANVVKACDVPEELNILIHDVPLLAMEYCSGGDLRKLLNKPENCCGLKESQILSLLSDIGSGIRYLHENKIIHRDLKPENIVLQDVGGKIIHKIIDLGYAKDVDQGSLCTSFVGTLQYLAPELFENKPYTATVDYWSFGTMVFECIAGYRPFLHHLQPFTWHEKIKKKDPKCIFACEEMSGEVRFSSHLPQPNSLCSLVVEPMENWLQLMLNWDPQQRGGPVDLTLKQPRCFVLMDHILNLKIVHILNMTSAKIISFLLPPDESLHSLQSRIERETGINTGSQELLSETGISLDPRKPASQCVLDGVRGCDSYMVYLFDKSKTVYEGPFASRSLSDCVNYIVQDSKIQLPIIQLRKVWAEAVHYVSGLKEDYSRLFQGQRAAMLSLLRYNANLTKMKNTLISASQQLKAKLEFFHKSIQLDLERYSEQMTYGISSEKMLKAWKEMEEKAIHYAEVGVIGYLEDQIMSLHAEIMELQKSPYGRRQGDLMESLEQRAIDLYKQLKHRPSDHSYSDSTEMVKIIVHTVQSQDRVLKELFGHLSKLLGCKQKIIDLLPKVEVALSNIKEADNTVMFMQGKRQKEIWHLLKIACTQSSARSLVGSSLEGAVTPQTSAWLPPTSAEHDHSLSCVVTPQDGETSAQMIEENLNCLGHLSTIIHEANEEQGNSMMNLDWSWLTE
The settings on record: at 1 µM.

The target in assay [2] is T2, Serine/threonine-protein kinase TBK1 (Homo sapiens) (UniProt Q9UHD2).
T2 sequence (whole entry): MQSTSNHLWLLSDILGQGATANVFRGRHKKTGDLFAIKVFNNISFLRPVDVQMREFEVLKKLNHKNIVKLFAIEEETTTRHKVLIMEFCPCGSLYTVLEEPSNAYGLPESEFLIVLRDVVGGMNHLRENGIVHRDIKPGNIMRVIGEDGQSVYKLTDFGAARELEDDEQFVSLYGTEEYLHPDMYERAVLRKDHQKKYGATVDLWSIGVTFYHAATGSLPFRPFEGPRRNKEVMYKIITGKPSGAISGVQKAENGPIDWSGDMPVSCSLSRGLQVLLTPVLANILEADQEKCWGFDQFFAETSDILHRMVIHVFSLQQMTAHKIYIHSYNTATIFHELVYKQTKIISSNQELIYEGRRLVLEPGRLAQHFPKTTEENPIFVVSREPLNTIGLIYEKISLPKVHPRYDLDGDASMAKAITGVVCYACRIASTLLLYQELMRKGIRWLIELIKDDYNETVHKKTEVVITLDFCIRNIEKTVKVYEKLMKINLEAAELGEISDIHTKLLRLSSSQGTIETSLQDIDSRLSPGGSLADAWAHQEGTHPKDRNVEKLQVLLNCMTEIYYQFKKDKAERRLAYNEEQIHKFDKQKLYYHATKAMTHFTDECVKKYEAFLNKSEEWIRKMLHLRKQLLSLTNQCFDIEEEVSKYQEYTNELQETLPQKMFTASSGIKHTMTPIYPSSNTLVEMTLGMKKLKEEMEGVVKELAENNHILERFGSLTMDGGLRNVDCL
As to conditions: at 1 µM.

As a reminder, the inhibition is the drop in the measured response relative to a control, in per cent. On to `N#Cc1cccc(Nc2ncc(-c3ccccc3)o2)c1`, for which the inhibition is 1% and -1% in assay [1]; 4% in assay [2].

Take `c1cnn2ncc(-c3ccnc(NCCCN4CCOCC4)n3)c2c1`: the inhibition in assay [1] is 2% and 1%; in assay [2], -2% and -4%.

With `O=S(=O)(CCOCc1ccc(-c2ccc3ncnc(Nc4ccc(OCc5cccc(F)c5)c(Cl)c4)c3c2)o1)c1ccccc1`, the inhibition in assay [1] is 0%; in assay [2], -2% and 1%.

The record behind these values is ChEMBL document CHEMBL2007661, “Compounds: GSK PKIS; Assays: UNC Frye lab” (2012).
